In article PMC11532494 (Nature Communications, 2024):
Several values for one entry are separate records, joined by “and”; a condition that tells them apart may be missing. Identical values can stand only once.

How the values were obtained:
[1] = target: KpHdaH (1b) (Klebsiella pneumoniae, UniProt A0A377Z5F6); format: biochemical; settings: KpKDAC (1b); single samples (replicates)
[2] = test system: VsHdaH (1b); format: biochemical, Vibrio sp.; settings: VsHdaH (1b) 3µM; single samples (replicates)
[3] = target: T1, BsAcuC (2c) (Bacillus subtilis, UniProt P39067); assay: Acetyl-polyamine deacetylase assay; format: biochemical; settings: BsAcuC (2c) 3µM; single samples (replicates)
T1 construct: made in house; host or cells: E. coli BL21 (DE3)
T1 sequence (P39067 1-387): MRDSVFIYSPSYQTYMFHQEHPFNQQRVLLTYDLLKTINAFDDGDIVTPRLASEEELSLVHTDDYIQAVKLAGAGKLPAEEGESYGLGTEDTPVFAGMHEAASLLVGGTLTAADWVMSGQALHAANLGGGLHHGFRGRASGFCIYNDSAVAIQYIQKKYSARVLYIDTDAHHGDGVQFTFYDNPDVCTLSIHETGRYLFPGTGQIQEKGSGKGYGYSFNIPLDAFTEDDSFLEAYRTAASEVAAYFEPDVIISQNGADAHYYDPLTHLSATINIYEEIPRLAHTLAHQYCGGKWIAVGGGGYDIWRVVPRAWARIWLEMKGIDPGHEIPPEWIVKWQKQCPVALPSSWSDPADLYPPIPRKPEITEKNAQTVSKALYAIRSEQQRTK

[4] = target: RwDmhA (1b) (Rhizorhabdus wittichii, UniProt A0A067XIQ6); format: biochemical; settings: RwDmhA (1b) 3µM; single samples (replicates)
[5] = target: LcApaH (3) (Legionella cherrii, UniProt A0A0W0SGS1); format: biochemical
[6] = target: PsApaH (4) (Pseudomonas sp. M30-35, UniProt A0A1Y0KY79); assay: Acetyl-polyamine deacetylase assay; format: biochemical; settings: single samples (replicates)
[7] = target: PA1409 (Pseudomonas aeruginosa, UniProt Q9I3T5); assay: Acetyl-polyamine deacetylase assay (positive control); format: biochemical; settings: sheet Figure 2d
[8] = test system: RsPrpH (1b); assay: Acetyl-polyamine deacetylase assay; format: biochemical, Rhizorhabdus sp.; settings: RsPrpH 3µM; single samples (replicates)
[9] = test system: VcHdaH (5b); assay: Acetyl-polyamine deacetylase assay; format: biochemical, Vibrio cholerae; settings: VcHdaH (5b) 6µM; single samples (replicates)
[10] = target: LpApaH (3) (Legionella pneumophila, UniProt A0A2S6EWV0); format: biochemical
Chain of LpApaH (3) (A0A2S6EWV0 1-426): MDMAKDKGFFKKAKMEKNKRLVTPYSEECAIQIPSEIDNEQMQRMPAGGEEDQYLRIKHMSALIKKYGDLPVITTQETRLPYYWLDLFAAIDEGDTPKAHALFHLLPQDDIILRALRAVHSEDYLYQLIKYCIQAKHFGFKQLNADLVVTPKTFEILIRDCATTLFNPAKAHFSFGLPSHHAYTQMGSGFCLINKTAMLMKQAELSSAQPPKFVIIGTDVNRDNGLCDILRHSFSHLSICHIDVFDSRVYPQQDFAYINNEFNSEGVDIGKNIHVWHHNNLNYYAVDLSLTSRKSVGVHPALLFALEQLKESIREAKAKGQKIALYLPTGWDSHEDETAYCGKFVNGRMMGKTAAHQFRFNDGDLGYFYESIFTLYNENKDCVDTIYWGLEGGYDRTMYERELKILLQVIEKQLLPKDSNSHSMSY

Chain of KpHdaH (1b) (A0A377Z5F6 1-371): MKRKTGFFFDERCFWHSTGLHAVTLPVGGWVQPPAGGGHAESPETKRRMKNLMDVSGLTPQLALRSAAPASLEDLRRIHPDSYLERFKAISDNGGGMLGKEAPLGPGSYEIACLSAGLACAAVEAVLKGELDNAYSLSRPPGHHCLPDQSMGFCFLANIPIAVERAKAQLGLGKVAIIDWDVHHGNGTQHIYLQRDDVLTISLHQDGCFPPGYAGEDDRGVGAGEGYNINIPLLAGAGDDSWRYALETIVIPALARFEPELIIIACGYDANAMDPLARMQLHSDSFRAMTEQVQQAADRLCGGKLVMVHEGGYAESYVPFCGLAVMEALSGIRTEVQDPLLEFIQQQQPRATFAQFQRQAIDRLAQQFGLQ
Chain of RwDmhA (1b) (A0A067XIQ6 1-369): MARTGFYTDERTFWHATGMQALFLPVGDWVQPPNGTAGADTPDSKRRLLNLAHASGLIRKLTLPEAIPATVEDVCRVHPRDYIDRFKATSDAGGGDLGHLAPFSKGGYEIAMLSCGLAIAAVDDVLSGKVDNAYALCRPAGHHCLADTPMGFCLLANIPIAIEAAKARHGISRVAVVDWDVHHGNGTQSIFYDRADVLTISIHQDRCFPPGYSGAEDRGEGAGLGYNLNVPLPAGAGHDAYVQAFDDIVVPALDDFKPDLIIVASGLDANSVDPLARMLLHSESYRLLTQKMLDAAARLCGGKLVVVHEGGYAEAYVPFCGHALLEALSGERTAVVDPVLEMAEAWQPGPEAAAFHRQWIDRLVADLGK
Chain of PsApaH (4) (A0A1Y0KY79 1-342 limits assumed): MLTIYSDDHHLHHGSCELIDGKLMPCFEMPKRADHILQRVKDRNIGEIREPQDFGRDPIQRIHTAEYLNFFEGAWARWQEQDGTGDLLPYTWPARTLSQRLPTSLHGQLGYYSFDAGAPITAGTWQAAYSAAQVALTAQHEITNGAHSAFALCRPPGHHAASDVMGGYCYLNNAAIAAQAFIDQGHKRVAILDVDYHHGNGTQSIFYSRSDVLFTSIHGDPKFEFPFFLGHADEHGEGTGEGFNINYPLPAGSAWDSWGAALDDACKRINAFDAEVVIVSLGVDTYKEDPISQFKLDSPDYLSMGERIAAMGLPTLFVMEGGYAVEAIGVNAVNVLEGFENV
Chain of PA1409 (Q9I3T5 whole entry): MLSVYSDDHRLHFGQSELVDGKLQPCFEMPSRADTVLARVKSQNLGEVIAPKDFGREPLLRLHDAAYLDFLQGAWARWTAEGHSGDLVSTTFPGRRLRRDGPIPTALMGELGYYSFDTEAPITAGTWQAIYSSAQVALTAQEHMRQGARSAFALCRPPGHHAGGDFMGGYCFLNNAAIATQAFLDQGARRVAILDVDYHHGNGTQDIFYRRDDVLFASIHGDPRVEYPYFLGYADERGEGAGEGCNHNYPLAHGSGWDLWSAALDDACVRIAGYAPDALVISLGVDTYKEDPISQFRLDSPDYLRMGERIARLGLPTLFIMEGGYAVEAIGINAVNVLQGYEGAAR
Chain of LcApaH (3) (A0A0W0SGS1 1-425): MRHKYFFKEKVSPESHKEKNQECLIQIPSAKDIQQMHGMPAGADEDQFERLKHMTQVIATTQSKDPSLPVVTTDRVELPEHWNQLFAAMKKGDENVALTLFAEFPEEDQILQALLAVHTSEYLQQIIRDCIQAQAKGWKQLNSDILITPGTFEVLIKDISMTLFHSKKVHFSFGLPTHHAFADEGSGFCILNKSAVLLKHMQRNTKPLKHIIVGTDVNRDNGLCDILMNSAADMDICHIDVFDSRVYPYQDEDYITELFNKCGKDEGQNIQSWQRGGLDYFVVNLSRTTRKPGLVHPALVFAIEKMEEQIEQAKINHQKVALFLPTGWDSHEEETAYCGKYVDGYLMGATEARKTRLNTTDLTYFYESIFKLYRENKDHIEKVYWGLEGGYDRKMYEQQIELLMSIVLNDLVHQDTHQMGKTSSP

Question: How did the “acetate released, g/l” value [1] turn out when `CC(=O)NCCCCNCCCN` [N8-acetyl-spermidine] was run?
Answer: Its value is -0.006957 g/L and 0.01217 g/L and 0.008116 g/L.

Question: And the “acetate released, mM” value [1]?
Answer: Its value is -0.1158 mM and 0.2027 mM and 0.1352 mM.

Question: And the “mM normalized to enzyme concentration” value [1]?
Answer: The value was -0.02317 mM and 0.04055 mM and 0.02703 mM.

Question: What about the “acetate released, g/l” value [2] of the same compound?
Answer: The value was 0.002742 g/L and 0.003003 g/L.

Question: What about the “acetate released, mM” value [2] of the same compound?
Answer: The value was 0.04565 mM and 0.05 mM.

Question: What about the “mM normalized to enzyme concentration” value [2] of the same compound?
Answer: Its value is 0.01522 mM and 0.01667 mM and 0.02536 mM.

Question: What about the “acetate released, g/l” value [3] of the same compound?
Answer: The value was 0.006919 g/L and 0.003003 g/L and 0.003525 g/L.

Question: What about the “acetate released, mM” value [3] of the same compound?
Answer: The value was 0.1152 mM and 0.05 mM and 0.0587 mM.

Question: And the “mM normalized to enzyme concentration” value [3]?
Answer: The value was 0.03841 mM and 0.01667 mM and 0.01957 mM.

Question: What about the “acetate released, g/l” value [4] of the same compound?
Answer: The value was 0.005875 g/L and 0.0006527 g/L.

Question: What about the “acetate released, mM” value [4] of the same compound?
Answer: Its value is 0.09783 mM and 0.01087 mM.

Question: And the “mM normalized to enzyme concentration” value [4]?
Answer: Its value is 0.02246 mM and 0.03261 mM and 0.003623 mM.

Question: And the “acetate released, g/l” value [5]?
Answer: Its value is 0.008058 g/L and 0.009115 g/L.

Question: And the “acetate released, mM” value [5]?
Answer: Its value is 0.1342 mM and 0.1518 mM.

Question: And the “mM normalized to enzyme concentration” value [5]?
Answer: The value was 0.1342 mM and 0.1518 mM.

Question: What about the “acetate released, g/l” value [6] of the same compound?
Answer: Its value is 0.04138 g/L and 0.04164 g/L and 0.04191 g/L.

Question: What about the “acetate released, mM” value [6] of the same compound?
Answer: The value was 0.6891 mM and 0.6935 mM and 0.6978 mM.

Question: And the A1-A2 ([7]; absorbance difference between the two time points)?
Answer: Its A1-A2 is 0.581 and 0.564.

Question: And the “(A1-A2)-B” value ([7]; absorbance difference minus mean blank)?
Answer: The value was 0.5395 and 0.5225.

Question: And the “acetate released, g/l” value [8]?
Answer: The value was 0.01005 g/L and 0.01371 g/L and 0.01762 g/L.

Question: What about the “acetate released, mM” value [8] of the same compound?
Answer: The value was 0.1674 mM and 0.2283 mM and 0.2935 mM.

Question: What about the “mM normalized to enzyme concentration” value [8] of the same compound?
Answer: Its value is 0.0558 mM and 0.07609 mM and 0.09783 mM.

Question: What about the “acetate released, g/l” value [9] of the same compound?
Answer: The value was 0.002219 g/L and 0.004047 g/L and 0.004569 g/L.

Question: And the “acetate released, mM” value [9]?
Answer: The value was 0.03696 mM and 0.06739 mM and 0.07609 mM.

Question: What about the “mM normalized to enzyme concentration” value [9] of the same compound?
Answer: The value was 0.006159 mM and 0.01123 mM and 0.01268 mM.

Question: What about the “acetate released, g/l” value [10] of the same compound?
Answer: The value was 0.00515 g/L and 0.00674 g/L.

Question: And the “acetate released, mM” value [10]?
Answer: The value was 0.09 mM and 0.11 mM.

Question: And the “mM normalized to enzyme concentration” value [10]?
Answer: Its value is 0.0429 mM and 0.0561 mM.
